Measurements published in article PMC8868193 (Antibiotics, 2022).
Where two headings read alike, the source gives them in different places. Non-standard residues stand in square brackets, D forms with d. Residues, ends and D or L forms follow the SMILES beside them. NMeA = CN[C@@H](C)C(=O)O

Experiments:
Candida albicans SC5314 = experiment: microbe, parasite or virus in culture; details: for Anti-Fungal MICs: SC5314, pH 7; for MIC: Candida albicans
Experimental: Candida albicans SC5314 was used as a test strain for the antifungal and synergistic antifungal bioassay. Checkerboard assays were carried out as described previously. Overnight cultures were chosen to prepare the strain suspension with RPMI 1640 medium. RPMI 1640 was purchased from Invitrogen, and was used according to the manufacturer’s protocol, by supplementing 2% glucose, 3.45% MOS, then adjusting the pH to 7.0. Compounds were dissolved in DMSO. Final concentrations ranged from 0.002 to 2 μg/mL for rapamycin and 0.39 to 25 μg/mL for peptide-like compounds, respectively. Rapamycin was 2-fold diluted from 1 to 11 (column), while selected compounds were 2-fold diluted from A to G (row) of the 96-well microtiter plate. The fractional inhibitory concentration index (FICI) is defined as the sum of the MIC of each drug when used in combination divided by the MIC of the drug used alone. Synergism and antagonism were defined by FICI of ≤0.5 and >4, respectively.

HDAC8 = molecular target: T1, HDAC8 (Homo sapiens, UniProt Q9BY41); experiment: HDAC activity assay (HDAC8 Deacetylase Fluorometric (Human) Assay Kit); format: biochemical; details: triplicate
T1 construct: purchased Abnova KA4444
T1 sequence (Q9BY41 1-377): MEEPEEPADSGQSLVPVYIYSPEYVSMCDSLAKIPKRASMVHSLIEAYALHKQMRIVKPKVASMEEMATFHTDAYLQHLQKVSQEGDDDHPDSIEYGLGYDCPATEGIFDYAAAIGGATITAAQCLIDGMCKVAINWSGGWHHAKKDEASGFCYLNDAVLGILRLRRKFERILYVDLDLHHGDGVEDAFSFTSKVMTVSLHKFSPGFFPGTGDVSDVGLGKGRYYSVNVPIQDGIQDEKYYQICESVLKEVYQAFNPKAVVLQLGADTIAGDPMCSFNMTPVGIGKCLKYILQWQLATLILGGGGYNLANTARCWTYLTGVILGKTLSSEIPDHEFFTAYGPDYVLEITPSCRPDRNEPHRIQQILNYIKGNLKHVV
Experimental: The HDAC activity of the compounds was measured using an HDAC8 Deacetylase Fluorometric (Human) Assay Kit (Cat KA4444, Abnova, Taipei, Taiwan) according to the manufacturer’s instructions. Fluorescence signal was detected with excitation at 360 nm and emission at 460 nm using a fluorescence microplate reader (Perkin-Elmer, Waltham, MA, USA). Experiments were performed in triplicate and data were analyzed using GraphPad Prism (version 6.0), Kd values were calculated by nonlinear curve fitting using a 1-site binding (hyperbola) model (Y = Bmax*X/(Kd + X).

[1] = literature; ref [10]; cited from earlier work
Source text: Fungal natural products play a prominent role in the development of pharmaceutical agents.

[2] = set-up: method as in 3 sources, ref [9] = [9]; PMID 16839576; doi:10.1016/j.phytochem.2006.05.033; 9. Walton J.D. HC-toxin Phytochemistry 2006 67 1406 1413 10.1016/j.phytochem.2006.05.033 16839576 ||| ref [16] = [16]; PMID 35747077; doi:10.1039/D0RA09388B; 16. Lin X. Chai L. Zhu H.R. Zhou Y. Lin. H.W. Applying molecular networking for targeted isolation of depsipeptides RSC Adv. 2021 11 2774 10.1039/D0RA09388B PMC9134009 35747077 ||| ref [17] = [17]; PMID 32528927; doi:10.3389/fchem.2020.00397; 17. Sala G.D. Mangoni A. Costantino V. Teta R. Identification of the biosynthetic gene cluster of thermoactinoamides and discovery of new congeners by integrated genome mining and MS-Based molecular n; details: literature, cited from earlier work
[3] = SC5314, pH 7, read-out: Anti-Fungal MICs

CC[C@H](C)[C@@H]1NC(=O)[C@H]([C@@H](C)O)NC(=O)[C@@H](Cc2ccc(OC)cc2)NC(=O)[C@H](C)N(C)C1=O [Compound 2, cyclo-[L-N-Me-Ala-L-Ile-L-Thr-D-O-Me-Tyr]] (cyclo([NMeA][dY](Me)TI))
Anti-Fungal MICs (Candida albicans SC5314): >100 µM
antifungal activity alone (in words) (Candida albicans SC5314; compound alone, C. albicans): no antifungal effects alone
Synergistic Anti-Fungal MICs (Candida albicans SC5314; with 0.008 μM rapamycin, C. albicans SC5314, checkerboard, RPMI 1640, pH 7.0, start concentration 25 μM, 90% growth inhibition): 6.25 µM
concentration of compound required with rapamycin for achieving 90% growth inhibition (checkerboard MIC) (Candida albicans SC5314; with 0.008 μM rapamycin, Candida albicans SC5314): 6.25 µM
HDAC inhibitory activity (in words) (HDAC8; HDAC8 fluorometric kit): weak HDAC (histone deacetylase) inhibitory activity

apicidin
antiprotozoan activity (in words) [1]: antiprotozoan activities

HC toxin
cytotoxic / antimitogenic activity (in words) ([2]; ref [9]): cytotoxic and antimitogenic activities

neoantimycin L
cytotoxicity (in words) ([2]; ref [16]): excellent cytotoxicity

CO[C@H]1C[C@@H]2CC[C@@H](C)[C@@](O)(O2)C(=O)C(=O)N2CCCC[C@H]2C(=O)O[C@H]([C@H](C)C[C@@H]2CC[C@@H](O)[C@H](OC)C2)CC(=O)[C@H](C)/C=C(\C)[C@@H](O)[C@@H](OC)C(=O)[C@H](C)C[C@H](C)/C=C/C=C/C=C/1C [Rapamycin, reference compound]
MIC (Candida albicans SC5314; [3]): 0.5 µM
concentration of rapamycin required in combination for achieving 90% growth inhibition (checkerboard MIC) (Candida albicans SC5314; together with 6.25 μM of compounds 1 and 2, Candida albicans SC5314): 0.008 µM

CC[C@H](C)[C@@H]1NC(=O)[C@H](C(C)C)NC(=O)[C@@H](Cc2ccc(OC)cc2)NC(=O)[C@H](C)N(C)C1=O [Compound 1, cyclo-[L-N-Me-Ala-L-Ile-L-Val-D-O-Me-Tyr]] (cyclo(I[NMeA][dY](Me)V))
Anti-Fungal MICs (Candida albicans SC5314): >100 µM
IC50 (HDAC8; text: HDAC at the cell level, method: HDAC8 fluorometric kit, ex 360 nm / em 460 nm, read-out: HDAC inhibition IC50): ~70 µM

thermoactinoamide A
antiproliferative activity (in words) ([2]; ref [17]): moderate antiproliferative activity

C[C@@H]1[C@H](O)[C@@H](C)/C=C/C=C/C=C/C=C/C=C/C=C/C=C/[C@H](O[C@@H]2O[C@H](C)[C@@H](O)[C@H](N)[C@@H]2O)C[C@@H]2O[C@](O)(C[C@@H](O)C[C@@H](O)[C@H](O)CC[C@@H](O)C[C@@H](O)CC(=O)O[C@H]1C)C[C@H](O)[C@H]2C(=O)O [Amphotericin B, reference compound]
MIC (Candida albicans SC5314; [3]): 0.5 µM
MIC (Candida albicans SC5314; SC5314, pH 7, read-out: Synergistic Anti-Fungal MICs): 0.125 µM
